Where two headings read alike, the source gives them in different places.
Experiments:
DdlB = DdlB (Escherichia coli, UniProt P07862); assay: Inhibition of DdlB, colorimetric malachite green method; format: biochemical, bacterial; settings: 20 min, read-out: DdlB (RA [%])
Protocol: (§1) Inhibition of Mur enzymes was monitored with the colorimetric malachite green method, which measured orthophosphate formed during reaction. The mixtures with a final volume of 50 µL contained:
DdlB: 50 mM HEPES-NaOH, pH 8.0, 5 mM MgCl2, 6.5 mM (NH4)2SO4, 10 mM KCl, 0.005% Triton X-114, 700 µM D-Ala, 500 µM ATP, purified DdlB, and 50 µM of each compound tested.
(§2) All compounds were soluble in the assay mixtures containing 5% DMSO (v/v). After incubation for 15 min (20 min for DdlB) at 37 °C, the enzyme reaction was terminated by addition of Biomol® reagent (100 µL) and absorbance was measured after 5 min at 650 nm (Synergy™ H4 microplate reader; BioTek Instruments, Inc., BioTek Gen5 Data Analysis Software, version 2.9, Santa Clara, CA, USA). All experiments were performed in duplicate.

hMAO-B = biological target: T1, hMAO-B (Homo sapiens, UniProt P27338); assay: biochemical; settings: for IC50: IC50 ± SEM
T1 construct: purchased Sigma Aldrich; host or cells: BTI-TN-5B1-4 baculovirus-infected insect cells
T1 sequence (P27338 1-520): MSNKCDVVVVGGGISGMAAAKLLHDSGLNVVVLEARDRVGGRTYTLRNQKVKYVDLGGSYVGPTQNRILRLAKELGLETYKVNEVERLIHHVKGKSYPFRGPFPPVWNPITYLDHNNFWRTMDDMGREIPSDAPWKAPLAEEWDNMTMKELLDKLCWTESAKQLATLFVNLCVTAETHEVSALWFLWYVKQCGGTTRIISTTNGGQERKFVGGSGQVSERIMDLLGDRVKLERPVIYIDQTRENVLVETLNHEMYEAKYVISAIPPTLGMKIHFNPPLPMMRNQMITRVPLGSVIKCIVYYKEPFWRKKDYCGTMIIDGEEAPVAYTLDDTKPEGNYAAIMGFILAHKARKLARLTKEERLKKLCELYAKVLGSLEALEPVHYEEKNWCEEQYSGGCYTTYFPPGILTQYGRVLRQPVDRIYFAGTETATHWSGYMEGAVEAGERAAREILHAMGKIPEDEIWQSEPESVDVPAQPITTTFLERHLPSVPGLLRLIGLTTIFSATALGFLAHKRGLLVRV
Text: The effects of the compounds on hMAO-A and hMAO-B were investigated using a fluorimetric assay, following a method previously described in the literature. Recombinant human microsomal hMAO enzymes expressed in BTI-TN-5B1-4 baculovirus-infected insect cells, horseradish peroxidase (HRP, type II, lyophilized powder), and p-tyramine hydrochloride were purchased from Sigma Aldrich. 10-Acetyl-3,7-dihydroxyphenoxazine (Amplex Red reagent) was synthesized as described in the literature.
After preincubation, the reaction was started by adding final concentrations of 200 µM Amplex Red reagent, 2 U/mL HRP, and 1 mM p-tyramine hydrochloride. Resorufin production was quantified based on the fluorescence produced (λex = 530 nm; λem = 590 nm) at 37 °C over a 20 min period. For the control experiments, DMSO was used instead of appropriate dilutions of the compounds in DMSO. For the determination of blank (b), the enzyme solution was replaced by a phosphate-buffered solution. Initial velocities were calculated from the obtained trend, with each measurement performed in duplicate. Specific fluorescence emission to determine the final results was calculated after subtracting the blank activity (b). Inhibitory potencies were expressed as RAs, and IC50 values were calculated as described in the section “Inhibition of hBChE and mAChE” above.

MurA = MurA (Escherichia coli, UniProt P0A749); assay: Inhibition of MurA, colorimetric malachite green method; format: biochemical, bacterial; settings: for remaining activity at 50 µM: 0.25 h, read-out: MurA (RA [%]); for RA (MurA, 50 µM): residual activity at 50 µM, Figure 1; for MurA RA (%): residual activity at 100 µM, Table 1
Sequence of MurA (P0A749 whole entry): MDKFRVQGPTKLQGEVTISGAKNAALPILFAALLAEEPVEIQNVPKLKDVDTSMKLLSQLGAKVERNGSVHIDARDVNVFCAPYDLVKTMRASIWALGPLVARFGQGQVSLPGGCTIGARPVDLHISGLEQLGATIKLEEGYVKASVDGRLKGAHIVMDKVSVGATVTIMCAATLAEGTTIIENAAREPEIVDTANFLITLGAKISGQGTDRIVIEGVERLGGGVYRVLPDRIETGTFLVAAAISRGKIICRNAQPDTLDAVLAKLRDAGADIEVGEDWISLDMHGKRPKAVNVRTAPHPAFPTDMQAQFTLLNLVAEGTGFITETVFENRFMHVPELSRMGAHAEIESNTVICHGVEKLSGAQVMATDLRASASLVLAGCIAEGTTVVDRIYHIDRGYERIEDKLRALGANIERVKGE
Protocol: as §1
MurA: 50 mM HEPES-NaOH, pH 7.8, 0.005% Triton X-114, 200 µM uridine-diphosphate-N-acetylglucosamine, 100 µM phosphoenolpyruvate, purified MurA, and 50 or 100 µM of each compound tested.
as §2

[1] = residual activity at 10 µM, Mini Library screen, Table S1, read-out: hMAO-B (RA [%])
[2] = residual activity at 10 µM, Table 3, read-out: hMAO-B RA (%)

C1=C(c2ccccc2)CCN(CCCCc2c[nH]c3ccccc23)C1 [MS-ML10]
remaining activity at 50 µM (DdlB): 96% | remaining activity at 10 µM (hMAO-B; [1]): 82% | remaining activity at 50 µM (MurA): 110%

CCCCc1nc2ccn(CC(=O)N3CCCCC3)c(=O)c2n1Cc1ccc(-c2ccccc2S(=O)(=O)NC(=O)OCc2ccccc2)cc1F [MS-ML05]
remaining activity at 50 µM (DdlB): 91% | remaining activity at 10 µM (hMAO-B; [1]): 93% | remaining activity at 50 µM (MurA): 90%

Oc1ccc2[nH]cc(CCCCN3CC=C(c4ccccc4)CC3)c2c1 [MS-ML11]
remaining activity at 50 µM (DdlB): 95% | remaining activity at 10 µM (hMAO-B; [1]): 45% | remaining activity at 50 µM (MurA): 100%

CCCCc1nc2ccn(Cc3ccccc3)c(=O)c2n1Cc1ccc(-c2ccccc2-c2nnn[nH]2)cc1 [MS-ML03]
remaining activity at 50 µM (DdlB): 81% | remaining activity at 10 µM (hMAO-B; [1]): 97% | remaining activity at 50 µM (MurA): 100%

O=C(Nc1ccc(Oc2ccncc2)cc1)Nc1cc(C(F)(F)F)ccc1-n1cncn1 [MS-ML80]
remaining activity at 50 µM (DdlB): 94% | IC50 (hMAO-B; Table 3): 0.405 ± 0.076 µM | remaining activity at 10 µM (hMAO-B; [1]): 11% | remaining activity at 10 µM (hMAO-B; [2]): 10% | remaining activity at 50 µM (MurA): 93%

CCCCCCN(Cc1ccc(C#Cc2ccc(CCCC)cc2)cc1)c1ccc(O)c(C(=O)O)c1 [MS-ML24]
remaining activity at 50 µM (DdlB): 116% | remaining activity at 10 µM (hMAO-B; [1]): 64% | IC50 (MurA): 7 ± 3 µM | remaining activity at 50 µM (MurA): 15% | RA (MurA, 50 µM) (MurA): 15% | MurA RA (%) (MurA): 0%

CCCCCCN(Cc1ccc(C#Cc2ccc(CCCC)cc2)cc1)C(=O)c1ccc(O)c(C(=O)O)c1 [MS-ML25]
remaining activity at 50 µM (DdlB): 114% | remaining activity at 10 µM (hMAO-B; [1]): 77% | IC50 (MurA): 6 ± 2 µM | remaining activity at 50 µM (MurA): 0% | RA (MurA, 50 µM) (MurA): 0% | MurA RA (%) (MurA): 0%

CCCCCCN(Cc1ccc(C#Cc2ccc(CCCC)cc2)cc1)c1ccc(F)c(C(=O)O)c1 [MS-ML26]
remaining activity at 50 µM (DdlB): 114% | remaining activity at 10 µM (hMAO-B; [1]): 92% | IC50 (MurA): 7 ± 4 µM | remaining activity at 50 µM (MurA): 7% | RA (MurA, 50 µM) (MurA): 7% | MurA RA (%) (MurA): 0%

O=C(OC[C@H]1CCCN1c1ccnc2ncnn12)c1ccc(Oc2ccccc2)nc1 [MS-ML31]
remaining activity at 50 µM (DdlB): 98% | IC50 (hMAO-B; Table 3): 0.912 ± 0.122 µM | remaining activity at 10 µM (hMAO-B; [1]): 13% | remaining activity at 10 µM (hMAO-B; [2]): 17% | hMAO-B RA [%] (hMAO-B; residual activity at 10 µM, Table S3): 17% | remaining activity at 50 µM (MurA): 94%
